Assay results as given in ChEMBL document CHEMBL1201862, “PubChem BioAssay data set” (2004).
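Growth conditions: 96-well plates. Treatment: test compound, 48 hours, 5 concentrations. Analysis: linear interpolation between bracketing concentrations; unreached endpoints set to highest concentration. Here, GI50 denotes the concentration required for 50% inhibition of growth.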 The source made the active and inactive calls. Cut-off read from the data, not from the text of the source: active = GI50 up to about 1.1 µM and inactive = higher.

How the values were obtained:
Assay in all cases: NCI-60 cell line screen, 48 h
BT-549 = test system: BT-549
KM-20L2 = test system: KM-20L2
DMS-273 = test system: DMS-273
LXFL 529 = test system: LXFL 529
DLD-1 = test system: DLD-1
SNB-78 = test system: SNB-78
HOP-18 = test system: HOP-18
RXF 631 = test system: RXF 631
XF498 = test system: XF498

SMILES	GI50 (BT-549)	GI50 (KM-20L2)	GI50 (DMS-273)	GI50 (LXFL 529)	GI50 (DLD-1)	further results
C/C(=C/C(=O)Nn1c(Cc2ccccc2)n[nH]c1=O)C(=O)O	> 100 µM (inactive)					
CC(=O)O[C@@]1(C)[C@@H](C)C(=O)O[C@@H]2CCN3CC=C(COC(=O)[C@]1(C)O)[C@H]23		> 100 µM (inactive)	> 100 µM (inactive)	> 100 µM (inactive)	> 100 µM (inactive)	
CCOC(=O)C(Cc1ccc(OC(=O)OC(C)(C)C)cc1)NC(=O)OC(C)(C)C (stereo not drawn)	> 100 µM (inactive)					
COc1cc2c(cc1OCCCCN1CCN(CCCCOc3cc4c(cc3OC)C(=O)N3CCC[C@H]3C=N4)CC1)N=C[C@@H]1CCCN1C2=O	0.0202 µM (active)					
N#CC1(Cc2ccccc2[N+](=O)[O-])c2ccccc2C2C(N1C(=O)c1ccccc1)C2(Cl)Cl (stereo not drawn)		7.19 µM (inactive)	28.2 µM (inactive)	> 100 µM (inactive)	3.6 µM (inactive)	GI50 (SNB-78): 77.3 µM (inactive); GI50 (HOP-18): > 100 µM (inactive)
CC1=CC2CC(C)=C(CC[C@]3(C)CC[C@H]([C@@H](C)C(=O)O)OO3)C(C)(C)C2CC1 (stereo partly drawn)		1.29 µM (inactive)	0.528 µM (active)	0.193 µM (active)	0.201 µM (active)	GI50 (SNB-78): 1.51 µM (inactive); GI50 (HOP-18): 0.158 µM (active); GI50 (RXF 631): 1.48 µM (inactive)
C/C=C1/CN2[C@@H](C3=C[C@@H]4[C@@H]5N(C3=O)c3ccccc3[C@@]53CCN5C/C(=C/C)[C@@H]4C[C@H]53)C[C@@]34c5ccccc5N5C(=O)CC=C([C@H]1C[C@H]23)[C@H]54 [ISOSUNGUCINE]	8.34 µM (inactive)					
COc1ccc(C(=O)N2CCN(c3ccc4[nH]c(=O)oc4c3)CC2)cc1	> 100 µM (inactive)					
COc1ccc(/C=C/C(=O)Oc2ccccc2OC)cc1	67 µM (inactive)					
O=Nc1c(-c2cccc([N+](=O)[O-])c2)nc2cnccn12	27.9 µM (inactive)					
CC1=CC(=O)/C(=C/NC(=S)C(N)=S)C(=O)O1	> 100 µM (inactive)					
COC(=O)[C@]12CCC(C)[C@H](C)[C@H]1C1=CCC3[C@@]4(C)CC[C@H](OC(C)=O)C(C)(C)C4CC[C@@]3(C)C1(C)C(O)C2 (stereo partly drawn)		> 100 µM (inactive)	> 100 µM (inactive)	77.3 µM (inactive)	> 100 µM (inactive)	GI50 (SNB-78): > 100 µM (inactive); GI50 (XF498): 27.9 µM (inactive); GI50 (HOP-18): > 100 µM (inactive)
CN(C)CCNc1ccc(C(=O)NCCCN(C)CCCNC(=O)c2ccc(NCCN(C)C)c3c(=O)c4ccccc4[nH]c23)c2[nH]c3ccccc3c(=O)c12	0.144 µM (active)					
COc1ccccc1NC(=O)CC(=O)N1N=C(c2ccccc2)C(/N=N/c2ccc(Cl)cc2)C1=O (stereo not drawn)		71.8 µM (inactive)	34.8 µM (inactive)	47.6 µM (inactive)	49.7 µM (inactive)	GI50 (SNB-78): > 100 µM (inactive); GI50 (XF498): 38.5 µM (inactive); GI50 (RXF 631): 44.1 µM (inactive)
O=C(CC(=O)CC(O)(C(F)(F)F)C(F)(F)F)CC(O)(C(F)(F)F)C(F)(F)F	> 10 µM (inactive)					
C/C(=N\Nc1nc2ccccc2o1)c1cc2ccccc2cn1	0.173 µM (active)					
COc1cc(CCCC(O)COc2cccc3c2C2(O)CCCCCC32)cc(OC)c1 (stereo not drawn)		14.1 µM (inactive)	20.5 µM (inactive)	16.5 µM (inactive)	20.1 µM (inactive)	GI50 (SNB-78): 20.7 µM (inactive); GI50 (XF498): 19.9 µM (inactive); GI50 (HOP-18): 16 µM (inactive)
CCOP(C)(=O)C(N)Cc1ccc(OC)c(OC)c1 (stereo not drawn)	> 100 µM (inactive)					
Nc1c2ccccc2nc2c(C(=O)Nc3ccc(S(N)(=O)=O)cc3)cccc12		> 100 µM (inactive)	52.8 µM (inactive)	45.2 µM (inactive)	> 100 µM (inactive)	GI50 (SNB-78): > 100 µM (inactive); GI50 (XF498): 72.3 µM (inactive)
Cc1cccc(C)c1NC(=O)C1C(=O)N(c2c(C)cccc2C)C(=O)/C1=N\N (stereo not drawn)		> 100 µM (inactive)	> 100 µM (inactive)	> 100 µM (inactive)	> 100 µM (inactive)	GI50 (HOP-18): > 100 µM (inactive); GI50 (RXF 631): > 100 µM (inactive)
Cn1cnc([N+](=O)[O-])c1[Se]c1ncnc2nc[nH]c12	14.6 µM (inactive)					

SMILES	GI50 (BT-549)	GI50 (KM-20L2)	GI50 (DMS-273)	GI50 (LXFL 529)	GI50 (DLD-1)	further results
O=C(O)c1cnccc1-c1cc(=O)[nH]n1-c1ccccc1	> 80.5 µM (inactive)					
CN(C)c1cc2ccccc2oc1=O	> 100 µM (inactive)					
C/C(O)=C/C(=O)c1[nH]c(C(=O)O)cc1C1CCN(Cc2ccccc2)C1=O (stereo not drawn)	22.6 µM (inactive)					
NC(=O)C(c1ccccc1)N1CCOCC1 (stereo not drawn)		> 100 µM (inactive)	> 100 µM (inactive)	> 100 µM (inactive)	> 100 µM (inactive)	GI50 (SNB-78): > 100 µM (inactive); GI50 (HOP-18): > 100 µM (inactive)
COC(=O)c1c(O)ccc2c1c1cc3ccccc3c(O)c1n2Cc1ccccc1Cl	32.8 µM (inactive)					
COc1cccc(NC(=O)CC(=O)N2NC(C)C(/N=N/c3cccc(C(=O)O)c3)C2=O)c1 (stereo not drawn)		> 100 µM (inactive)	> 100 µM (inactive)	> 100 µM (inactive)	> 100 µM (inactive)	GI50 (SNB-78): > 100 µM (inactive); GI50 (HOP-18): 17.9 µM (inactive); GI50 (RXF 631): > 100 µM (inactive)
O=C(Nc1cc2cc([N+](=O)[O-])ccc2oc1=O)c1cccs1	69.2 µM (inactive)					
CC1(C)CC2C(=O)c3ccccc3NC2c2ccccc21 (stereo not drawn)	10.8 µM (inactive)					
C[N+](C)(CCNC(=O)c1cccc2cc3ccccc3nc12)Cc1ccc([N+](=O)[O-])cc1	> 100 µM (inactive)					
CC(=O)NC1CONC1=O (stereo not drawn)	> 100 µM (inactive)					
COc1cc(C2c3cc4c(cc3OC3(OC)COC(=O)C23)OCO4)cc(OC)c1OC (stereo not drawn)	1.7 µM (inactive)					
CC1=C(C(=O)Nc2ccccc2C)C(c2ccccc2)C(C(=O)Nc2ccccc2C)=C(C)N1		42.2 µM (inactive)	49.5 µM (inactive)	30.5 µM (inactive)	41 µM (inactive)	GI50 (SNB-78): 32.9 µM (inactive); GI50 (XF498): 23.1 µM (inactive); GI50 (HOP-18): 36.6 µM (inactive)
CN(CN1C(=O)C2Cc3ccccc3CN2C1=O)c1ccccn1 (stereo not drawn)		> 100 µM (inactive)	> 100 µM (inactive)	> 100 µM (inactive)	> 100 µM (inactive)	GI50 (XF498): > 100 µM (inactive)
Cc1ccc(SCC(OCn2cnc3c(N)ncnc32)[C@H](C)F)cc1 (stereo partly drawn)	40.9 µM (inactive)					
CN(C)Cc1ccc(O)c(CN(C)C)n1	> 100 µM (inactive)					
COCN(CCC1=CCCCC1)C(=O)OC	> 100 µM (inactive)					
Cc1cccc(-c2nnc3s/c(=C\c4ccc5c(c4)OCO5)c(=O)n23)c1		> 100 µM (inactive)	> 100 µM (inactive)	> 100 µM (inactive)	> 100 µM (inactive)	GI50 (SNB-78): > 100 µM (inactive); GI50 (XF498): > 100 µM (inactive); GI50 (HOP-18): > 100 µM (inactive)
COc1cc(C(=O)NNC(=O)c2cc(Br)ccc2NC(=O)c2cccs2)cc(OC)c1OC	22.3 µM (inactive)					
Cc1nc2sccn2c1C(=O)NC(=O)Nc1ccc(Cl)cc1		> 100 µM (inactive)	74.1 µM (inactive)	> 100 µM (inactive)	> 100 µM (inactive)	GI50 (SNB-78): 42.9 µM (inactive); GI50 (XF498): 19.2 µM (inactive)
CNC(=O)Nc1cc2c3c(c1)CCCN3CCC2	> 10 µM (inactive)					
CC(C)(C)NCc1cc(C(C)(C)C)cc(-c2ccc(Cl)cc2)c1O	13.7 µM (inactive)					

SMILES	GI50 (BT-549)	GI50 (KM-20L2)	GI50 (DMS-273)	GI50 (LXFL 529)	GI50 (DLD-1)	further results
Cc1nc(O)nc2nc3ccc(Cl)cc3c(N(CCO)CCO)c12	> 100 µM (inactive)					
CC[C@@]1(O)C(=O)OCc2c1cc1n(c2=O)Cc2cc3cc(O)ccc3nc2-1 [HYDROXYCAMPTOTHECIN]	0.0543 µM (active)	0.0834 µM (active)		0.15 µM (active)	1.2 µM (inactive)	GI50 (SNB-78): 0.248 µM (active); GI50 (XF498): 0.0262 µM (active); GI50 (HOP-18): 0.109 µM (active)
O=C(OCC1OC2OC(c3ccccc3)(n3ccc4c([N+](=O)[O-])ccnc43)OC2C1OC(=O)c1ccccc1)c1ccccc1 (stereo not drawn)	> 100 µM (inactive)					
Clc1cccc2[nH]ncc12	36.1 µM (inactive)					
O=C1/C(=C/c2ccc(OC(=O)c3ccc(Cl)cc3)cc2)CCC/C1=C\c1ccc(OC(=O)c2ccc(Cl)cc2)cc1	> 100 µM (inactive)					
COc1ccc(/C=C(/C(=O)O)c2cc(OC)c(OC)c(OC)c2)cc1		22.2 µM (inactive)	31.6 µM (inactive)	69.2 µM (inactive)	41.2 µM (inactive)	GI50 (SNB-78): 35.8 µM (inactive); GI50 (RXF 631): 46.8 µM (inactive)
CC(=O)OCC1OC(OC2C(COC(C)=O)OC(Sc3ccccc3C)C(OC(C)=O)C2OC(C)=O)C(OC(C)=O)C(OC(C)=O)C1OC(C)=O (stereo not drawn)		> 100 µM (inactive)	> 100 µM (inactive)	> 100 µM (inactive)	> 100 µM (inactive)	GI50 (SNB-78): > 100 µM (inactive); GI50 (HOP-18): > 100 µM (inactive)
CN(C)CCNc1ccc2c(=O)n(CCN(C)C)c(=O)n3c4ccc([N+](=O)[O-])cc4c(=O)c1c23	0.655 µM (active)					
C=CC(C)(C)c1c(OC)oc2ccc(OC)c(C)c2c1=O	90.2 µM (inactive)					
Cc1n[n+]([O-])c(C)cc1[N+](=O)[O-]	24.7 µM (inactive)					
CC(=O)OC1=CC2=CC[C@H]3[C@@H]4CCC(=O)[C@@]4(C)CC(=O)[C@]3(S)[C@@]2(C)CC1	35 µM (inactive)					
N=C(c1ccccc1)N(c1ccccc1)c1ccccc1		> 100 µM (inactive)	42.5 µM (inactive)	21.6 µM (inactive)	63.5 µM (inactive)	GI50 (SNB-78): 55 µM (inactive); GI50 (HOP-18): 0.0415 µM (active)
CC(=O)Oc1ccc2c(c1)c1c(OC(C)=O)c3ccccc3c(OC(C)=O)c1n2Cc1cccc(C)c1	35.1 µM (inactive)					
OCC1(CNc2cc(Cl)ncn2)CCC1	> 100 µM (inactive)					
[N-]=[N+]=C1C(=O)C2CC3CC1CC2C3 (stereo not drawn)		> 100 µM (inactive)	> 100 µM (inactive)	> 100 µM (inactive)	> 100 µM (inactive)	GI50 (SNB-78): > 100 µM (inactive); GI50 (HOP-18): > 100 µM (inactive); GI50 (RXF 631): > 100 µM (inactive)
O=C(c1ccccc1)C1C(c2ccccc2[N+](=O)[O-])N1C1CCCCC1 (stereo not drawn)	11.6 µM (inactive)					
COc1cc2c(c(OC)c1OC)-c1ccc(SC)c(=O)cc1[C@@H](OC(C)=O)CC2	< 0.01 µM (active)					
CN1C(=O)C(C)(C)C2(SC(C)(C)C2(C)C)N(C)C1=S (stereo not drawn)			> 100 µM (inactive)	> 100 µM (inactive)	> 100 µM (inactive)	GI50 (SNB-78): > 100 µM (inactive); GI50 (HOP-18): > 100 µM (inactive)
CCOC(=O)c1ccc(-c2cc(C)[nH]n2)[nH]1	> 100 µM (inactive)					
O=C1CC(NCc2ccccc2)c2c(Cl)sc(Cl)c21 (stereo not drawn)	31 µM (inactive)					
O=CC1=CCCC2(C1)OCCO2			> 100 µM (inactive)	> 100 µM (inactive)	> 100 µM (inactive)	GI50 (SNB-78): > 100 µM (inactive); GI50 (XF498): > 100 µM (inactive); GI50 (RXF 631): > 100 µM (inactive)
